Data from ChEMBL document CHEMBL1765070, “Structure-based design of potent and selective 3-phosphoinositide-dependent kinase-1 (PDK1) inhibitors” (J Med Chem, 2011).

Columns and labels:
[1] = target: T1, 3-phosphoinositide-dependent protein kinase 1 (Homo sapiens, UniProt O15530); assay: Inhibition of PDK1
T1 sequence (O15530 whole entry): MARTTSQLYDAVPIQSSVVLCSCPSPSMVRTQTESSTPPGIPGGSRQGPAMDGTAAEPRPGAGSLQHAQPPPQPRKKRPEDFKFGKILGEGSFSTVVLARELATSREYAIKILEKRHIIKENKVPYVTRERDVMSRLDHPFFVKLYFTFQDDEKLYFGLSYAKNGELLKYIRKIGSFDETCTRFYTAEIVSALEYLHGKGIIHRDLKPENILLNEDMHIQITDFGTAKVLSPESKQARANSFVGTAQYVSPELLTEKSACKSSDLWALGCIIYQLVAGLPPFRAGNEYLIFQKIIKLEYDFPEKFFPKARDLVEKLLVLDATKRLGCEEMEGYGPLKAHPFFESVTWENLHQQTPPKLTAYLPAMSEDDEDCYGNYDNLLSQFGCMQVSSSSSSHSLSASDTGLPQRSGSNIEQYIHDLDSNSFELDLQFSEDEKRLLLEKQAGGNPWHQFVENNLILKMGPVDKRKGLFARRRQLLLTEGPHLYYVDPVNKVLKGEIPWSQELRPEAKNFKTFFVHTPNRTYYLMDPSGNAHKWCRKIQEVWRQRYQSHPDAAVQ

Aurora kinase A = target: T2, Aurora kinase A (Homo sapiens, UniProt O14965); assay: Inhibition of aurora A
T2 sequence (O14965 whole entry): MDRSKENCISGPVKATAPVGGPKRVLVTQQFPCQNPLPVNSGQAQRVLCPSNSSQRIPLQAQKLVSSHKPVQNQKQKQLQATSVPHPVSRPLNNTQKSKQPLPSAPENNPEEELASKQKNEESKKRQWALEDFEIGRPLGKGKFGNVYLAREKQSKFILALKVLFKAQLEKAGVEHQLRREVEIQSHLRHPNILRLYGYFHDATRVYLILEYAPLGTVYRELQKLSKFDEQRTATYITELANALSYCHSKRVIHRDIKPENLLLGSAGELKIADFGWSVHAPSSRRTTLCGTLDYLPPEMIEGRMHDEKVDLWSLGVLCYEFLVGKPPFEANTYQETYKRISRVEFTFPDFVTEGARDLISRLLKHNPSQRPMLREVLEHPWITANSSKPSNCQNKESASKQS

Aurora kinase B = Aurora kinase B (Homo sapiens, UniProt Q96GD4); assay: Inhibition of aurora B
Aurora kinase B, sequence (Q96GD4 whole entry): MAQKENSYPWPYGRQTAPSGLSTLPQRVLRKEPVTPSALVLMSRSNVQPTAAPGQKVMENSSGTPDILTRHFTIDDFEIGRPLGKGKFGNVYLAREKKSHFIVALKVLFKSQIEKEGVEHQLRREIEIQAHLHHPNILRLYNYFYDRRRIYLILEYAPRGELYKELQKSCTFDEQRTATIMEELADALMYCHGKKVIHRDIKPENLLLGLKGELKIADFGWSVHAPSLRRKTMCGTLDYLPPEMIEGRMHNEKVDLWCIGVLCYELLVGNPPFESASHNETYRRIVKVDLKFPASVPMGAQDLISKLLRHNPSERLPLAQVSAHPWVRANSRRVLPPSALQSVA

TGF-beta receptor type-1 = target: T3, TGF-beta receptor type-1 (Homo sapiens, UniProt P36897); assay: Inhibition of ALK5; settings: read-out: pIC50 (converted)
T3 sequence (P36897 whole entry): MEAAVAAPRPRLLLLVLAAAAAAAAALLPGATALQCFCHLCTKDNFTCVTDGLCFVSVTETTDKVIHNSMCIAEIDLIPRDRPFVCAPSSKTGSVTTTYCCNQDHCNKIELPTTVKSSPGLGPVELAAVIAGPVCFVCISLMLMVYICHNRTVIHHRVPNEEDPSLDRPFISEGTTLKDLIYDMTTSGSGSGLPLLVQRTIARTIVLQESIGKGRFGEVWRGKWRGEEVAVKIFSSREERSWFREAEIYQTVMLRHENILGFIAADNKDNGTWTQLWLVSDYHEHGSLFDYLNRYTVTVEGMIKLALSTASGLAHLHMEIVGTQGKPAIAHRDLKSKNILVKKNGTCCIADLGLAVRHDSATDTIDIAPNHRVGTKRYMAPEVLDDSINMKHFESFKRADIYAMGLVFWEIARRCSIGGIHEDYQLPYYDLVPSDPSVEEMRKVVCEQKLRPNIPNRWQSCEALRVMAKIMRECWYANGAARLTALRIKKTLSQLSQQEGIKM

[2] = target: Rho-associated protein kinase 1 (Homo sapiens, UniProt Q13464); assay: Inhibition of ROCK1
Rho-associated protein kinase 1, sequence (Q13464 whole entry): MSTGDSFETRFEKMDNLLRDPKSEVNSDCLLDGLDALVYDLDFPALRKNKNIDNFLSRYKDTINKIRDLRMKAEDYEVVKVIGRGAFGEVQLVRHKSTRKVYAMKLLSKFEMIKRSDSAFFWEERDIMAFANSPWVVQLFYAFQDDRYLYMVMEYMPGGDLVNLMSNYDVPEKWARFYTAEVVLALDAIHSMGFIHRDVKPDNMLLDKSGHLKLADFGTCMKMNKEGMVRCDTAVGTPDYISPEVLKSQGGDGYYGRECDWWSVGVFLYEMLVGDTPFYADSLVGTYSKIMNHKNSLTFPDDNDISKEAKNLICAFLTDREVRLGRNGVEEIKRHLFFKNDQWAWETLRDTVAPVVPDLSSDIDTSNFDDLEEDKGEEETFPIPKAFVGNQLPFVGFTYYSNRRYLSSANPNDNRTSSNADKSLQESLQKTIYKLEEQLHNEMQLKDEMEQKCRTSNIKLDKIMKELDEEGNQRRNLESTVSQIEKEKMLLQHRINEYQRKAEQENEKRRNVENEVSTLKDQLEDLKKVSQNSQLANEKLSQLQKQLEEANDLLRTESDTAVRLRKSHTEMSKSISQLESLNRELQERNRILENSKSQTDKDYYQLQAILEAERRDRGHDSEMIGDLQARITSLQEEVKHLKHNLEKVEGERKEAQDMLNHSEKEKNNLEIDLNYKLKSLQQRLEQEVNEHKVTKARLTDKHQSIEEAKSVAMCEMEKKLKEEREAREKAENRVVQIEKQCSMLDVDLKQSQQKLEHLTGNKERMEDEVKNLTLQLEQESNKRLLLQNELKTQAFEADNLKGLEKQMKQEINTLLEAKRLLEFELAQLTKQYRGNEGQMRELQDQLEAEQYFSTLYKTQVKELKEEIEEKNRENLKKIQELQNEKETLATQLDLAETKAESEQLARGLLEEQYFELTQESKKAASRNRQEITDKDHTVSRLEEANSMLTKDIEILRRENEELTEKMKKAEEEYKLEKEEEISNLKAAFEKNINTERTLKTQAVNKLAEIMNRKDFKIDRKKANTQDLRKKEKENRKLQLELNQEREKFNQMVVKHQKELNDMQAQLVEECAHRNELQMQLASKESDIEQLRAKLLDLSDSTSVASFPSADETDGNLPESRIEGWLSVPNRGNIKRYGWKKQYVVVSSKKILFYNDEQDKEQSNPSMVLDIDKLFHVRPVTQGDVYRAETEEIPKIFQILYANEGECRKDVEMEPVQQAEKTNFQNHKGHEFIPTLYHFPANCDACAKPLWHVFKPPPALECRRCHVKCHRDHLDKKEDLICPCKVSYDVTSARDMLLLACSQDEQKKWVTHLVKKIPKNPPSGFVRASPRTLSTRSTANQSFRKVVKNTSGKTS

[3] = target: T1, 3-phosphoinositide-dependent protein kinase 1; assay: Inhibition of PDK1-mediated AKT phosphorylation at Thr308 residue in human PC3 cells by ELISA; format: cell-based, PC-3
[4] = target: T1, 3-phosphoinositide-dependent protein kinase 1; assay: Inhibition of PDK1-mediated RSK phosphorylation at Ser221 residue in human PC3 cells by ELISA; format: cell-based, PC-3
K562 = assay: Antiproliferative activity against human K562 cells; format: functional, cell-based
OCI-AML2 = assay: Antiproliferative activity against human OCI-AML2 cells; format: functional, cell-based
[5] = Antiproliferative activity against human OCI-AML3 cells; format: functional, cell-based; settings: OCI-AML-3
HEL = assay: Antiproliferative activity against human HEL 92.1.7 cells; format: functional, cell-based
[6] = Antiproliferative activity against human F-36P cells; format: functional, cell-based

IC50 [1] | IC50 (Aurora kinase A) | IC50 (Aurora kinase B) | IC50 (TGF-beta receptor type-1) | IC50 [2] | IC50 [3] | IC50 [4] | IC50 (K562) | IC50 (OCI-AML2) | SMILES | IC50 [5] | IC50 (HEL) | IC50 [6]
3.16 nM | > 10000 nM | 5010 nM | > 10000 nM | > 10000 nM | 24 nM | 30 nM | > 30000 nM | 460 nM | CNc1nc(-c2ccc3c(N)n[nH]c3c2)cc(N2C[C@@H](C(=O)NC3CCCCC3)OC[C@H]2C)n1 | 690 nM | 19000 nM | 390 nM
1.58 nM | > 10000 nM | 2000 nM | > 10000 nM | 3160 nM | 165 nM | 655 nM | 8000 nM | 580 nM | CNc1nc(-c2ccc3c(N)n[nH]c3c2)cc(N2C[C@@H](C(=O)Nc3ccccc3)CC[C@H]2C)n1 | 650 nM | 12000 nM | 460 nM

SMILES | IC50 [1] | IC50 (Aurora kinase A) | IC50 (Aurora kinase B) | IC50 (TGF-beta receptor type-1) | IC50 [2] | IC50 [3] | IC50 [4] | IC50 (K562) | IC50 (OCI-AML2) | IC50 [5] | IC50 (HEL) | IC50 [6]
CC[C@@H]1CO[C@H](C(=O)NC2CCCCC2)CN1c1cc(-c2ccc3c(N)n[nH]c3c2)nc(NC)n1 | 6.31 nM | > 10000 nM | 1580 nM | > 10000 nM | > 10000 nM | 85 nM | 102 nM | > 30000 nM | 890 nM | 760 nM | 16000 nM | 460 nM
